{"source": "paper PMC8745237", "about": "“Multiple Antimicrobial Effects of Hybrid Peptides Synthesized Based on the Sequence of Ribosomal S1 Protein from Staphylococcus aureus” (International Journal of Molecular Sciences, 2022)", "key": {"S. aureus (209P strain)": {"tested_on": "S. aureus (209P strain)", "experiment": "Preliminary testing of antimicrobial properties on agar, S. aureus", "assay_type": "cell-based, Staphylococcus aureus", "description": "(§1) Table S4. Results of preliminary testing the antimicrobial properties of the VVVHINGGKF (V10F), GVVVRLANFG (G10G),\nVQGLVHISEI (V10I), QQVNVKILGI (Q10I) peptides against S. aureus, MRSA, B. cereus, and E. coli bacteria cells on agar."}, "MRSA (ATCC 43300 strain)": {"tested_on": "MRSA (ATCC 43300 strain)", "experiment": "Preliminary testing of antimicrobial properties on agar, MRSA ATCC 43300", "assay_type": "cell-based, Methicillin-resistant Staphylococcus aureus", "description": "as §1\n(§2) VQGLVHISEI (V10I), QQVNVKILGI (Q10I) peptides against S. aureus, MRSA, B. cereus, and E. coli bacteria cells on agar. […]\nMRSA (ATCC 43300 Non-AMP Non-AMP Non-AMP Non-AMP Non-AMP"}, "MRSA (SA 180-F strain)": {"tested_on": "MRSA (SA 180-F strain)", "experiment": "Preliminary testing of antimicrobial properties on agar, MRSA SA 180-F", "assay_type": "cell-based, Methicillin-resistant Staphylococcus aureus", "description": "as §1, §2"}, "E. coli (K12 strain)": {"tested_on": "E. coli (K12 strain)", "experiment": "Preliminary testing of antimicrobial properties on agar, E. coli", "assay_type": "cell-based, Escherichia coli", "description": "as §1, §2"}, "[1]": {"tested_on": "B. cereus (IP-5812 strain)", "experiment": "Preliminary testing of antimicrobial properties on agar, B. cereus", "assay_type": "cell-based, Bacillus cereus", "description": "as §1, §2"}}}
{"sequence": "GVVVRLANFG [G10G]", "values": [{"measurement": "antimicrobial properties on agar", "setting": "S. aureus (209P strain); peptide 1 µM", "result": "Non-AMP"}, {"measurement": "antimicrobial properties on agar", "setting": "S. aureus (209P strain); peptide 10 µM", "result": "Non-AMP"}, {"measurement": "antimicrobial properties on agar", "setting": "S. aureus (209P strain); peptide 100 µM", "result": "Non-AMP"}, {"measurement": "antimicrobial properties on agar", "setting": "S. aureus (209P strain); peptide 1000 µM", "result": "Non-AMP"}, {"measurement": "antimicrobial properties on agar", "setting": "S. aureus (209P strain); peptide 10000 µM", "result": "AMP"}, {"measurement": "antimicrobial properties on agar", "setting": "MRSA (ATCC 43300 strain); peptide 1 µM", "result": "Non-AMP"}, {"measurement": "antimicrobial properties on agar", "setting": "MRSA (ATCC 43300 strain); peptide 10 µM", "result": "Non-AMP"}, {"measurement": "antimicrobial properties on agar", "setting": "MRSA (ATCC 43300 strain); peptide 100 µM", "result": "Non-AMP"}, {"measurement": "antimicrobial properties on agar", "setting": "MRSA (ATCC 43300 strain); peptide 1000 µM", "result": "Non-AMP"}, {"measurement": "antimicrobial properties on agar", "setting": "MRSA (ATCC 43300 strain); peptide 10000 µM", "result": "Non-AMP"}, {"measurement": "antimicrobial properties on agar", "setting": "MRSA (SA 180-F strain); peptide 1 µM", "result": "Non-AMP"}, {"measurement": "antimicrobial properties on agar", "setting": "MRSA (SA 180-F strain); peptide 10 µM", "result": "Non-AMP"}, {"measurement": "antimicrobial properties on agar", "setting": "MRSA (SA 180-F strain); peptide 100 µM", "result": "Non-AMP"}, {"measurement": "antimicrobial properties on agar", "setting": "MRSA (SA 180-F strain); peptide 1000 µM", "result": "Non-AMP"}, {"measurement": "antimicrobial properties on agar", "setting": "MRSA (SA 180-F strain); peptide 10000 µM", "result": "Non-AMP"}, {"measurement": "antimicrobial properties on agar", "setting": "E. coli (K12 strain); peptide 1 µM", "result": "Non-AMP"}, {"measurement": "antimicrobial properties on agar", "setting": "E. coli (K12 strain); peptide 10 µM", "result": "Non-AMP"}, {"measurement": "antimicrobial properties on agar", "setting": "E. coli (K12 strain); peptide 100 µM", "result": "Non-AMP"}, {"measurement": "antimicrobial properties on agar", "setting": "E. coli (K12 strain); peptide 1000 µM", "result": "Non-AMP"}, {"measurement": "antimicrobial properties on agar", "setting": "E. coli (K12 strain); peptide 10000 µM", "result": "Non-AMP"}, {"measurement": "antimicrobial properties on agar", "setting": "[1]; peptide 1 µM", "result": "Non-AMP"}, {"measurement": "antimicrobial properties on agar", "setting": "[1]; peptide 10 µM", "result": "Non-AMP"}, {"measurement": "antimicrobial properties on agar", "setting": "[1]; peptide 100 µM", "result": "Non-AMP"}, {"measurement": "antimicrobial properties on agar", "setting": "[1]; peptide 1000 µM", "result": "Non-AMP"}, {"measurement": "antimicrobial properties on agar", "setting": "[1]; peptide 10000 µM", "result": "Non-AMP"}]}
